From patent publication US11026944B2, “Compositions and methods for treating insomnia” (Eisai R&D Management Co., Ltd., priority 2014, dated 2021)

System: subjects with primary insomnia
Assay: 001 Study Part B: polysomnography (LPS, WASO, SE)
Type: in vivo, human
Text: For Part B, 58 otherwise healthy subjects with primary insomnia were randomized across three cohorts, and stratified by gender. Part B also included an active control (zolpidem) and matching placebo. In each cohort, there were approximately 12 subjects in the compound A/zolpidem-matched placebo group, approximately four subjects in the zolpidem/compound A-matched placebo group, and approximately four subjects in the compound A-matched placebo/zolpidem-matched placebo group. Part B dosing occurred in the evening, 30 minutes prior to the sleep period. The starting dose for Part B was 3 dose levels that determined to be safe and well tolerated in Part A. Subsequent dose levels in Part B were determined based on the PD results of the first cohort in Part B and PD and safety results from at least 3 completed higher dose cohorts in Part A. Each cohort in Part B was divided into at least two groups, with dosing of each group staggered by a minimum of 2 days.
After the initial Screening visit, eligible subjects were scheduled to return to the clinic for 2 days during the Screening Period to conduct screening/baseline PSGs. These two days occurred at least 3 days after the initial Screening visit and within a window from Day-7 to Day-6 (±2 days). The first PSG was used to screen for sleep apnea and periodic limb movements in sleep (PLMS) and serve as the first baseline PSG. The second PSG was used as the second baseline PSG. Specific PSG variables were used to determine whether subjects met PSG inclusion criteria, and the average of PSG variables from these two PSGs was used as Baseline for this PD measure. Subjects who had met PSG inclusion criteria returned to the clinic on Day-1 for additional baseline procedures and randomization. Subjects were not allowed to nap on Day 1. On the evening of Day 1, after fasting a minimum of 3 hours, study drug was administered 30 minutes prior to the subject's habitual bedtime (lights-out), as calculated from the sleep diary for the first PSG during the Screening Period. PK blood samples were collected at prespecified timepoints, and PD assessments were performed. PSG was recorded on Day 1, postdose. Subjects were administered additional PD assessments each morning on Day 1 through Day 6. These assessments included the KSS, DSST, and PVT, in order to assess daytime sleepiness, level of alertness, and ability to concentrate. The KSS and DSST were also administered 5 minutes predose and 25 minutes postdose on Day 1, just prior to lights-out. Waketime Questionnaires were administered after the PD assessments within 15 minutes of lights-on, on Day 1 to Day 6. Time and duration of naps was recorded on Day 2.
In addition, PSG was performed during the Screening Period at Days-7 and -6 (±2 days), and postdose on Day 1. An 8-hour diagnostic PSG consisting of electroencephalogram (EEG), electrooculogram (EOG), electromyogram (EMG), ECGs, leg electrodes, and measures of respiratory function (airflow, respiratory effort, and oxygen saturation) were performed starting at the subject's habitual bedtime as determined from the sleep diary for the 3 nights immediately prior to the first PSG on Day-7 (±2 days). PSG variables from this night were used to screen for sleep apnea and PLMS. On Day-6 (±2) and postdose on Day1, standard PSGs (i.e., not including leg electrodes or measures of respiratory function other than oxygen saturation) were performed. Specified PSG variables from these two PSGs conducted during the Screening Period were used to determine whether subjects met PSG inclusion criteria. The average of PSG variables from these two PSGs conducted during the Screening Period were used as baseline PSG values. The key PD parameters such as PSG LPS, TST, SE, and WASO have been obtained from all PSG recordings.

Cc1ncc(OC[C@@]2(c3cccc(F)c3)C[C@H]2C(=O)Nc2ccc(F)cn2)c(C)n1 [Compound A, (1R,2 S)-2-(((2,4-dimethylpyrimidin-5-yl)oxy)methyl)-2-(3-fluorophenyl)-N-(5-fluoropyridin-2-yl) cyclopropanecarboxamide]
LPS reduction relative to Baseline (single 2.5 mg evening dose): approximately 30 minutes | WASO reduction relative to Baseline (single 2.5 mg evening dose): approximately 30 minutes | LPS reduction relative to Baseline (single 10 mg evening dose): approximately 30 minutes | WASO reduction relative to Baseline (single 10 mg evening dose): approximately 30 minutes | LPS reduction relative to Baseline (single 25 mg evening dose): approximately 45 minutes | WASO reduction relative to Baseline (single 25 mg evening dose): more than 45 minutes
